Assays:
Format in all cases: ADME
[1] = target: T1, UDP-glucuronosyltransferase 2B17 (Homo sapiens, UniProt O75795); experiment: Activity of human recombinant UGT2B17 expressed in insect cells assessed as enzyme mediated glucuronidation at 500 uM by LC-MS/MS method
T1 sequence (O75795 whole entry): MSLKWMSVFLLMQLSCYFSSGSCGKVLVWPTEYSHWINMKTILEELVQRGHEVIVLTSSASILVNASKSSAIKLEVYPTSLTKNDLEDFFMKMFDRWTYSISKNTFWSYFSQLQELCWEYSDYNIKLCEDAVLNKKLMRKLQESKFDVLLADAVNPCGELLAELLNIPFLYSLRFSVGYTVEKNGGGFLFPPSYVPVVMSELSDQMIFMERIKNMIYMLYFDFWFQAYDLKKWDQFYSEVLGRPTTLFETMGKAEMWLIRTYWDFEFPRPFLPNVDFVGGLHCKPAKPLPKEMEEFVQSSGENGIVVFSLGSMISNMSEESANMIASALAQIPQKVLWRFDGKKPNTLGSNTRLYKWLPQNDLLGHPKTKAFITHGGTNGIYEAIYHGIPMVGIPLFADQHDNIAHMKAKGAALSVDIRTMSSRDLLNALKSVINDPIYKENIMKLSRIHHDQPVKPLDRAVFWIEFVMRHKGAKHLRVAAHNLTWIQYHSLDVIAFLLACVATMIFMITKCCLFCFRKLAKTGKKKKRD

[2] = target: T2, UDP-glucuronosyltransferase 1A6 (Homo sapiens, UniProt P19224); experiment: Activity of human recombinant UGT1A6 expressed in insect cells assessed as intrinsic clearance for enzyme mediated glucuronidation per mg protein by LC-MS/MS method
T2 sequence (P19224 whole entry): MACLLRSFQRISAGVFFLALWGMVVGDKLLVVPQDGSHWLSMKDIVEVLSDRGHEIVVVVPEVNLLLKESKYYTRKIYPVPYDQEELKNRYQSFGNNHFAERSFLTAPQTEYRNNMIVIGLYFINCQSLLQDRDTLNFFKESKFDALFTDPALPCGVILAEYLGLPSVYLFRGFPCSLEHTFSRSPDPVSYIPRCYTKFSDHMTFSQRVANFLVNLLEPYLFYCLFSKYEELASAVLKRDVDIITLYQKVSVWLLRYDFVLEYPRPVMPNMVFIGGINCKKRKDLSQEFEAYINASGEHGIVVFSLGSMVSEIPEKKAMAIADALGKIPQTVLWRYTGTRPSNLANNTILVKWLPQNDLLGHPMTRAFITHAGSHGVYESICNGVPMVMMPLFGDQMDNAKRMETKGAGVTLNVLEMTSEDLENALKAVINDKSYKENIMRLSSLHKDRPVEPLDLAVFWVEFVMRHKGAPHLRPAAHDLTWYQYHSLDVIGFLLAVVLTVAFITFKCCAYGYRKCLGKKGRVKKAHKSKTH

[3] = Drug metabolism in human kidney microsomes assessed as drug glucuronidation in presence of 100 to 1000 uM propofol by LC-MS/MS method
[4] = target: T3, UDP-glucuronosyltransferase 1A4 (Homo sapiens, UniProt P22310); experiment: Activity of human recombinant UGT1A4 expressed in insect cells assessed as enzyme mediated glucuronidation at 500 uM by LC-MS/MS method
T3 sequence (P22310 whole entry): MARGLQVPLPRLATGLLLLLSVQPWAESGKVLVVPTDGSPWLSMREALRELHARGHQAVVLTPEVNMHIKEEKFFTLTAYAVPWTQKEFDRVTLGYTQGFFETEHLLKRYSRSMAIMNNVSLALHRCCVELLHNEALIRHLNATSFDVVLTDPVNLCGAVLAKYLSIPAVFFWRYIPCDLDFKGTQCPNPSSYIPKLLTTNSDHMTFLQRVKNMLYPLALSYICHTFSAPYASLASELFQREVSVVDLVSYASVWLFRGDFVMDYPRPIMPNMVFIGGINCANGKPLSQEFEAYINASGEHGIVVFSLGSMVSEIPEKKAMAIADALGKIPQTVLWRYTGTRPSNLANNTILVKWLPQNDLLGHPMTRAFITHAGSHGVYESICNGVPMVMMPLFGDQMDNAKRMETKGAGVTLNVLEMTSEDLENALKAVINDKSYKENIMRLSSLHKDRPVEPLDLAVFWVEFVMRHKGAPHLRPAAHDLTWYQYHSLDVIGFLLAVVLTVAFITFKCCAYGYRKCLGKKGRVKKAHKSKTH

[5] = target: T1, UDP-glucuronosyltransferase 2B17; experiment: Activity of human recombinant UGT2B17 expressed in insect cells assessed as enzyme mediated glucuronidation at 12.5 uM by LC-MS/MS method
[6] = target: T4, UDP-glucuronosyltransferase 1A7 (Homo sapiens, UniProt Q9HAW7); experiment: Activity of human recombinant UGT1A7 expressed in insect cells assessed as enzyme mediated glucuronidation at 12.5 uM by LC-MS/MS method
T4 sequence (Q9HAW7 whole entry): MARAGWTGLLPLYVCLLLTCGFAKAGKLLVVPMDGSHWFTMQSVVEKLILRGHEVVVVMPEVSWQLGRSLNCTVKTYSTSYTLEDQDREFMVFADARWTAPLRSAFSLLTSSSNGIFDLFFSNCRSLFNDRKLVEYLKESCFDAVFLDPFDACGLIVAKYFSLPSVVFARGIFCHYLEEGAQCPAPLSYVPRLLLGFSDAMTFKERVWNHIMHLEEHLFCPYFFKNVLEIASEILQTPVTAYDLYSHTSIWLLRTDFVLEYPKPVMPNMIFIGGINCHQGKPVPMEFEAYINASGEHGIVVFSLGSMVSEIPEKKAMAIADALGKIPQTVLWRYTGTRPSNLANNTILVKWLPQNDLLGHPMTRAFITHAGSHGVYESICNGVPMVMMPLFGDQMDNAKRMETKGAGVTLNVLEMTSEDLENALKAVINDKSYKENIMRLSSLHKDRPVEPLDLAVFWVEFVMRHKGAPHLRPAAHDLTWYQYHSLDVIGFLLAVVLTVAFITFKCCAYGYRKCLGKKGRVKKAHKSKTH

[7] = target: T5, UDP-glucuronosyltransferase 1A10 (Homo sapiens, UniProt Q9HAW8); experiment: Activity of human recombinant UGT1A10 expressed in insect cells assessed as enzyme mediated glucuronidation at 500 uM by LC-MS/MS method
T5 sequence (Q9HAW8 whole entry): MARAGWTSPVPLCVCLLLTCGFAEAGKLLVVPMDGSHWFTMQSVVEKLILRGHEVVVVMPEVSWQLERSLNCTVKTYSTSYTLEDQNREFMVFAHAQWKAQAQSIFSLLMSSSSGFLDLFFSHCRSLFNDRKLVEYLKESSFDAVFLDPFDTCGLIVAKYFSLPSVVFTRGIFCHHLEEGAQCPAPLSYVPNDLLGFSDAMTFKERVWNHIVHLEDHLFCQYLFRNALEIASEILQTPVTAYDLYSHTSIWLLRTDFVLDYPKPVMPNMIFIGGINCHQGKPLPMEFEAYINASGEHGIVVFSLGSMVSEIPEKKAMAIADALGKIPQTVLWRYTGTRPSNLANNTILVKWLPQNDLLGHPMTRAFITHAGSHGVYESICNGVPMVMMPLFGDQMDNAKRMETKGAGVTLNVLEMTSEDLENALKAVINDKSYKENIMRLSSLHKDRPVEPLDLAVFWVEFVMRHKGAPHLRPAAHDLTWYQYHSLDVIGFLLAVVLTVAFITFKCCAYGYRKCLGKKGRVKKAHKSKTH

Drug metabolism [1]: metabolite_detected | clearance [2]: 1.6 µL/min/mg | Drug metabolism [3]: metabolite_not_detected | Drug metabolism [4]: metabolite_not_detected | Drug metabolism [5]: metabolite_detected | Drug metabolism [6]: metabolite_detected | Drug metabolism [7]: metabolite_detected
SMILES: CC1=NN(c2ccccc2)C(=O)C1 [EDARAVONE]

Source: ChEMBL document CHEMBL3526061, “Glucuronidation of edaravone by human liver and kidney microsomes: biphasic kinetics and identification of UGT1A9 as the major UDP-glucuronosyltransferase isoform” (Drug Metab Dispos, 2012)
